Measurements from patent US20090163521A1, “Novel Pyrazolopyrimidinone Derivatives” (ORCHID RESEARCH LABORATORIES LIMITED, priority 2005, published 2009).
Blank lines part the entries; values can stand above or below the compound they belong to.

Assays:
COX-2 = target: T1, COX-2 (Homo sapiens, UniProt P35354); assay: Human whole blood assay (LPS-induced PGE2, COX-2 inhibition); format: cell-based; settings: LPS stimulated
T1 construct: Fresh blood was collected in tubes containing sodium heparin by vein puncture from healthy male volunteers; endogenous in cells; host or cells: human whole blood from healthy male volunteers, aspirin-pretreated and LPS-stimulated
T1 sequence (P35354 18-604): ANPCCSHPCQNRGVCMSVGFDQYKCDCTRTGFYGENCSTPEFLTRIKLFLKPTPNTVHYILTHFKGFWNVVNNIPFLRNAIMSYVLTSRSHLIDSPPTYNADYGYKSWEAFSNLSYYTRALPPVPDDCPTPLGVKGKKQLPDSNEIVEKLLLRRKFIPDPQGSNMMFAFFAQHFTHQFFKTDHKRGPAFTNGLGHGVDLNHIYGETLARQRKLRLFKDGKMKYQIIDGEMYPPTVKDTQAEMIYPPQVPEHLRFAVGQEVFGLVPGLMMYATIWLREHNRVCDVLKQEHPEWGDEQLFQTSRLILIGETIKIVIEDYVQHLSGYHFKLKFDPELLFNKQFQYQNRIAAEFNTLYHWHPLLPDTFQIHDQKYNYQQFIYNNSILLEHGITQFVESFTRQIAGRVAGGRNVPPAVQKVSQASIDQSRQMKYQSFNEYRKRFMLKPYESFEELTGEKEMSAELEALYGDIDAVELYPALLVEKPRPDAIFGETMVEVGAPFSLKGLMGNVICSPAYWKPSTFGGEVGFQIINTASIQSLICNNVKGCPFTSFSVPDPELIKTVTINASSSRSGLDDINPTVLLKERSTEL
Experimental: Human whole blood provides a protein and cell rich milieu appropriate for the study of biochemical efficacy of anti-inflammatory compounds such as selective COX-2 inhibitors. […] This is correlating with the observation that COX-2 inhibitors have no effect on prostaglandin E2 (PGE2) production in normal blood. These inhibitors were active only after incubation of human blood with lipopolysaccharide (LPS), which induces COX-2 production in the blood.
Fresh blood was collected in tubes containing sodium heparin by vein puncture from healthy male volunteers. The subjects should have no apparent inflammatory conditions and not taken NSAIDs for at least 7 days prior to blood collection. Blood was preincubated with aspirin in vitro (12 μg/ml, at time zero) to inactivate COX-1 for 6 hours. Then test compounds (at various concentrations) or vehicle were added to blood. After that blood was stimulated with LPS B:4 (10 μg/ml) and incubated for another 18 h at 37° C. water bath. After which the blood was centrifuged, plasma was separated and stored at −80° C. (J. Pharmacol. Exp. Ther, 271, 1705, 1994; Proc. Natl. Acad. Sci. USA, 96, 7563, 1999). The plasma was assayed for PGE2 using Cayman ELISA kit as per the procedure outlined by the manufacturer (Cayman Chemicals, Ann Arbor, USA).

TNF-α [1] = assay: In vitro measurement of TNF-α in LPS-stimulated human PBMC; format: cell-based; settings: LPS 1 μg/ml, 18 h
Experimental: This assay determines the effect of test compounds on the production of TNF α in human Peripheral Blood Mononuclear Cells (PBMC). Compounds were tested for their ability to inhibit the activity of TNF α in human PBMC. PBMC were isolated from blood (from healthy volunteers) using BD Vacutainer CPT™ (Cell preparation tube, BD Bio Science) and suspended in RPMI medium (Physiol. Res. 52: 593-598, 2003). The test compounds were pre-incubated with PBMC (0.5 million/incubation well) for 15 minutes at 37° C. and then stimulated with Lipopolysaccharide (Escherichia coli: B4; 1 μg/ml) for 18 h at 37° C. in 5% CO2. The levels of TNFα in cell culture medium were estimated using enzyme linked Immunosorbent assay performed in a 96 well format as per the procedure of the manufacturer (Cayman Chemical, Ann Arbor, USA).

MCF-7 = assay: DTP human tumor cell line screen, MCF-7; format: cell-based; settings: 100 μM; 48 hours; percent growth of control
Experimental: (§1) The current assay utilizes a 384 well plate format and fluorescent staining technologies resulting in greater screening capacity for testing of synthetic samples.
(§2) The cell lines of the cancer-screening panel are grown in RPMI 1640 medium containing 5% fetal bovine serum and 2 mM L-glutamine. For a typical screening experiment, cells are inoculated into 96 well microtiter plates in 100 μL. After cell inoculation, the micro-titer plates are incubated at 37° C., 5% CO2, 95% air and 100% relative humidity for 24 h prior to addition of experimental drugs. The cells are plated a densities of 5000 cells/well (MCF7), 1000 cells/well (NCI-H460), and 7500 cells/well (SF-268) to allow for varying doubling time of the cell lines. Each plate contains all three-cell lines, a series of dilutions of standard agents, total kill wells and appropriate controls. Plates are incubated under standard conditions for 24 hours prior to addition of experimental compounds or extracts.
(§3) Experimental compounds are solubilized in dimethyl sulfoxide (DMSO) at 400-times the desired maximum test concentration (maximum final DMSO concentration of 0.25%) and stored frozen. Compounds are then diluted with complete media with 0.1% gentamicin sulfate (5 μl of test sample in 100% DMSO is added to 565 μl of complete medium). 20 μl of this solution is then dispensed into test wells containing 50 μl of cell suspension to yield a test concentration of 1.00E-04M.
(§4) After compound addition, plates are incubated at standard conditions for 48 hours, 10 μl/well Alamar Blue is added and the plates are incubated for an additional 4 hours. Fluorescence is measured using an excitation wavelength of 530 nm and an emission wavelength of 590 nm.
(§5) Percent growth is calculated on a plate-by-plate basis for test wells relative to control wells. Percent Growth is expressed as the ratio of fluorescence of the test well to the average fluorescence of the control wells ×100.

NCI-H460 = assay: DTP human tumor cell line screen, NCI-H460; format: cell-based; settings: 100 μM; 48 hours; percent growth of control
Experimental: as §1, §2, §3, §4, §5

SF-268 = assay: DTP human tumor cell line screen, SF-268; format: cell-based; settings: 100 μM; 48 hours; percent growth of control
Experimental: as §1, §2, §3, §4, §5

TNF-α [2] = assay: LPS induced sepsis for measurement of TNF-α inhibition in mice; format: in vivo; settings: at 50 mg/kg, oral, serum 90 min after LPS
Experimental: The LPS induced sepsis model in mice was performed as described by Les sekut et al (J Lab Clin Med 1994; 124:813-20). Female Swiss albino mice were selected and the body weights were equivalent within each group. The mice were fasted for 20 hours with free access to water. The mice were dosed orally with the test compound suspended in vehicle containing 0.5% Tween 80 in 0.25% Carboxy-methylcellulose sodium salt. The control mice were administered the vehicle alone. After 30 min of oral dosing, mice were injected with 500 μg of Lipopolysaccharide (Escherichia coli, LPS: B4 from Sigma) in phosphate buffer saline solution into the intraperitoneal cavity of the mice. After 90 min of LPS administration mice were bled via retro-orbital sinus puncture. Blood samples were stored overnight at 4° C. Serum samples were collected by centrifuging the samples at 400 rpm for 15 min at 4° C. Immediately the serum samples were analysed for TNFα levels using commercially available mouse TNF-α ELISA kit (Amersham Biosciences) and assay was performed by the manufacturer instruction.

inhibition at 0.25 µM (COX-2): 26.2%
Structure (SMILES): Nc1n[nH]c2nc(-c3ccccc3)n(-c3ccc(F)cc3)c(=O)c12 [Example 12, 3-Amino-5-(4-fluorophenyl)-6-phenyl-1,5-dihydro-4H-pyrazolo[3,4-d]pyrimidin-4-one]

inhibition at 10 µM (COX-2): 27.1%
Structure (SMILES): CSc1ccc(-c2nc3[nH]nc(N)c3c(=O)n2-c2ccc(Cl)cc2)cc1 [Example 9, 3-Amino-5-(4-chlorophenyl)-6-[(4-methylthio)phenyl]-1,5-dihydro-4H-pyrazolo[3,4-d]pyrimidin-4-one]
% T/C Breast (MCF-7) (MCF-7): 9% | % T/C Lung (NCI-H460) (NCI-H460): 4% | % T/C CNS (SF-268) (SF-268): 31%

inhibition at 10 µM (COX-2): 29.2%
Structure (SMILES): CSc1ccc(-n2c(-c3ccccc3)nc3[nH]nc(N)c3c2=O)cc1 [Example 11, 3-Amino-5-[(4-methylthio)phenyl]-6-phenyl-1,5-dihydro-4H-pyrazolo[3,4-d]pyrimidin-4-one]

inhibition at 10 µM (COX-2): 31.8%
Structure (SMILES): CSc1ccc(-n2c(-c3ccc(F)cc3)nc3[nH]nc(N)c3c2=O)cc1 [Example 5, 3-Amino-5-[(4-methylthio)phenyl]-6-(4-fluorophenyl)-1,5-dihydro-4H-pyrazolo[3,4-d]pyrimidin-4-one]

inhibition at 0.25 µM (COX-2): 31.4%
Structure (SMILES): Cc1ccc(-n2c(-c3ccccc3)nc3[nH]nc(N)c3c2=O)cc1 [Example 16, 3-Amino-5-(4-methylphenyl)-6-phenyl-1,5-dihydro-4H-pyrazolo[3,4-d]pyrimidin-4-one]

inhibition at 0.25 µM (COX-2): 20.2%
Structure (SMILES): CCOc1ccc(-n2c(-c3ccc(SC)cc3)nc3[nH]nc(N)c3c2=O)cc1 [Example 15, 3-Amino-5-(4-ethoxyphenyl)-6-[(4-methylthio)phenyl]-1,5-dihydro-4H-pyrazolo[3,4-d]pyrimidin-4-one]

inhibition at 0.25 µM (COX-2): 19.3% | inhibition at 10 µM (COX-2): 23%
Structure (SMILES): Cc1ccc(-n2c(-c3ccc(S(C)(=O)=O)cc3)nc3[nH]nc(N)c3c2=O)cc1 [Example 14, 3-Amino-5-(4-methylphenyl)-6-[(4-methylsulfonyl)phenyl]-1,5-dihydro-4H-pyrazolo[3,4-d]pyrimidin-4-one]

inhibition at 0.25 µM (COX-2): 28.3%
Structure (SMILES): CSc1ccc(-n2c(-c3ccc(Cl)cc3)nc3[nH]nc(N)c3c2=O)cc1 [Example 8, 3-Amino-5-[(4-methylthio)phenyl]-6-(4-chlorophenyl)-1,5-dihydro-4H-pyrazolo[3,4-d]pyrimidin-4-one]
% T/C Breast (MCF-7) (MCF-7): 26% | % T/C Lung (NCI-H460) (NCI-H460): 2% | % T/C CNS (SF-268) (SF-268): 36%

inhibition at 0.25 µM (COX-2): 26.8%
Structure (SMILES): CSc1ccc(-n2c(-c3ccc(C)cc3)nc3[nH]nc(N)c3c2=O)cc1 [Example 13, 3-Amino-5-[(4-methylthio)phenyl]-6-(4-methylphenyl)-1,5-dihydro-4H-pyrazolo[3,4-d]pyrimidin-4-one]

The next lines start with the compound.

Structure (SMILES): CSc1ccc(-c2nc3c(c(N)nn3C)c(=O)n2-c2ccc(F)cc2)cc1 [Example 25, 3-Amino-5-(4-fluorophenyl)-1-methyl-6-[4-(methylthio)phenyl]-1,5-dihydro-4H-pyrazolo[3,4-d]pyrimidin-4-one]
inhibition at 10 µM (TNF-α [1]): 52.9%

Structure (SMILES): COc1ccc(-n2c(-c3ccc(N(C)C)cc3)nc3c(c(N)nn3C)c2=O)cc1 [Example 31, 3-Amino-6-[4-(dimethylamino)phenyl]-5-(4-methoxyphenyl)-1-methyl-1,5-dihydro-4H-pyrazolo[3,4-d]pyrimidin-4-one]
inhibition at 10 µM (TNF-α [1]): 87.9%

Structure (SMILES): CSc1ccc(-c2nc3[nH]nc(N)c3c(=O)n2-c2ccc(C(C)(C)C)cc2)cc1 [Example 6, 3-Amino-5-(4-tert-butylphenyl)-6-[4-(methylthio)phenyl]-1,5-dihydro-4H-pyrazolo[3,4-d]pyrimidin-4-one]
% T/C Breast (MCF-7) (MCF-7): 0% | % T/C Lung (NCI-H460) (NCI-H460): 0% | % T/C CNS (SF-268) (SF-268): 1% | inhibition at 0.25 µM (COX-2): 18.6% | inhibition at 10 µM (COX-2): 37.7%

Structure (SMILES): CSc1ccc(-c2nc3c(c(N)nn3C(C)=O)c(=O)n2-c2ccc(C)c(C)c2)cc1 [Example 37, 1-Acetyl-3-amino-5-(3,4-dimethylphenyl)-6-[(4-methylthio)phenyl]-1,5-dihydro-4H-pyrazolo[3,4-d]pyrimidin-4-one]
inhibition at 10 µM (TNF-α [1]): 29.9%

Structure (SMILES): CSc1ccc(-c2nc3c(c(N)nn3C)c(=O)n2-c2ccc(Cl)cc2)cc1 [Example 24, 3-Amino-5-(4-chlorophenyl)-1-methyl-6-[4-(methylthio)phenyl]-1,5-dihydro-4H-pyrazolo[3,4-d]pyrimidin-4-one]
inhibition at 10 µM (TNF-α [1]): 87.9% | TNF-α Inhibition (%) (TNF-α [2]): 91.99 (at 50 mg/kg) %

Structure (SMILES): CCc1ccc(-n2c(-c3ccc(SC)cc3)nc3[nH]nc(N)c3c2=O)cc1 [Example 10, 3-Amino-5-(4-ethylphenyl)-6-[(4-methylthio)phenyl]-1,5-dihydro-4H-pyrazolo[3,4-d]pyrimidin-4-one]
% T/C Breast (MCF-7) (MCF-7): 22% | % T/C Lung (NCI-H460) (NCI-H460): 4% | % T/C CNS (SF-268) (SF-268): 10%

Structure (SMILES): CSc1ccc(-c2nc3c(c(N)nn3C)c(=O)n2-c2ccc(Br)cc2)cc1 [Example 30, 3-Amino-5-(4-bromophenyl)-1-methyl-6-[4-(methylthio)phenyl]-1,5-dihydro-4H-pyrazolo[3,4-d]pyrimidin-4-one]
inhibition at 10 µM (TNF-α [1]): 86.6%

Structure (SMILES): CSc1ccc(-n2c(-c3ccc(C(F)(F)F)cc3)nc3[nH]nc(N)c3c2=O)cc1 [Example 17, 3-Amino-5-[(4-methylthio)phenyl]-6-(4-trifluoromethylphenyl)-1,5-dihydro-4H-pyrazolo[3,4-d]pyrimidin-4-one]
% T/C Breast (MCF-7) (MCF-7): 0% | % T/C Lung (NCI-H460) (NCI-H460): 25% | % T/C CNS (SF-268) (SF-268): 0% | inhibition at 0.25 µM (COX-2): 19.4% | inhibition at 10 µM (COX-2): 36.5%
